Assay results as given in patent US20100216751A1 (priority 2007, published 2010).
Several values for one entry are separate records, joined by “and”; a condition that tells them apart may be missing. Identical values can stand only once.

What was measured:
[1] = Solubility of bevirimat and bevirimat dimeglumine in single vehicles; details: in 100% water, 100% saline, 100% dextrose, 100% PEG 400, and 25% Poloxamer 188
[2] = Pharmacokinetic evaluation of bevirimat HPβCD formulation, intravenous, male Cynomolgus monkeys
Description: Six male Cynomolgus monkeys having an initial body weight of about 3.5 to about 4.5 kg are allowed 7 days to acclimate to their individual housing units. Monkeys are supplied with water and a commercial diet ad libitum prior to the study initiation. Food is withheld from the monkeys for a minimum of twelve hours before the study and during the study until four hours postdose when food is returned. Water is supplied ad libitum.
Test formulations are administered to the monkeys at time 0 on appropriate days. Test formulations will be dosed orally via oral gavage or intravenously.
Samples are drawn at the frequencies indicated below. Each blood sample (0.5 mL) is collected from the monkey's saphenous vein via a butterfly catheter and placed into a chilled polypropylene tube containing sodium heparin as the anticoagulant. Blood samples are centrifuged at a temperature of 4° C. at a speed of 3,000 rpm for 15 minutes. All samples are maintained chilled throughout processing. Plasma is collected after centrifugation, pipetted into a 2-mL polypropylene microtube, and frozen on dry-ice pending analytical evaluation.

[3] = 2.5 mg FAE/mL in 10% HPβCD+3% Mannitol in water, 10 mg FAE/monkey intravenous injection, monkeys 115,116,120,AVG
[4] = male, cynomolgus monkey, plasma, iv, 10 mg

With `C=C(C)[C@@H]1CC[C@]2(C(=O)O)CC[C@]3(C)[C@H](CC[C@@H]4[C@@]5(C)CC[C@H](OC(=O)CC(C)(C)C(=O)O)C(C)(C)[C@@H]5CC[C@]43C)[C@@H]12` [Bevirimat, 3-O-(3′,3′-dimethylsuccinyl)betulinic acid] the “solubility (in words)” value [1] was “poorly soluble”, the AUCall [2, 3] was 81549 ng·h/mL and 84743 ng·h/mL and the C0 [2, 3] was 54673 ng/mL and 39400 ng/mL. For the same compound, the CL [2, 3] was 0.383 mL/min/kg and 0.533 mL/min/kg and 0.417 mL/min/kg, the “Dnzed AUCall” value [2, 3] was 46879 ng·h/mL/mg/kg and 41590 ng·h/mL/mg/kg and 31505 ng·h/mL/mg/kg and 39991 ng·h/mL/mg/kg and the t1/2 [2, 3] was 24.7 h and 15.5 h and 18.3 h. The Plasma Concentration ([2]; 0.033 hr, 2.5 mg FAE/mL in 10% HPβCD+3% Mannitol in water, 10 mg FAE/monkey intravenous injection, monkeys 115,116,120,AVG) was 39400 ng/mL, the Plasma Concentration ([2]; 0.25 hr, 2.5 mg FAE/mL in 10% HPβCD+3% Mannitol in water, 10 mg FAE/monkey intravenous injection, monkeys 115,116,120,AVG) was 41600 ng/mL and 23100 ng/mL and 32333 ng/mL and the Plasma Concentration ([2]; 0.50 hr, 2.5 mg FAE/mL in 10% HPβCD+3% Mannitol in water, 10 mg FAE/monkey intravenous injection, monkeys 115,116,120,AVG) was 19800 ng/mL and 14800 ng/mL and 19967 ng/mL. For the same compound, the Plasma Concentration ([2]; 1.0 hr, 2.5 mg FAE/mL in 10% HPβCD+3% Mannitol in water, 10 mg FAE/monkey intravenous injection, monkeys 115,116,120,AVG) was 20200 ng/mL and 11700 ng/mL and 18233 ng/mL, the Plasma Concentration ([2]; 12 hr, 2.5 mg FAE/mL in 10% HPβCD+3% Mannitol in water, 10 mg FAE/monkey intravenous injection, monkeys 115,116,120,AVG) was 384 ng/mL and 404 ng/mL and 517 ng/mL and the Plasma Concentration ([2]; 24 hr, 2.5 mg FAE/mL in 10% HPβCD+3% Mannitol in water, 10 mg FAE/monkey intravenous injection, monkeys 115,116,120,AVG) was 367 ng/mL and 245 ng/mL and 320 ng/mL. For the same compound, the Plasma Concentration ([2]; 48 hr, 2.5 mg FAE/mL in 10% HPβCD+3% Mannitol in water, 10 mg FAE/monkey intravenous injection, monkeys 115,116,120,AVG) was 148 ng/mL and 81.0 ng/mL and 121 ng/mL, the Plasma Concentration ([2]; 72 hr, 2.5 mg FAE/mL in 10% HPβCD+3% Mannitol in water, 10 mg FAE/monkey intravenous injection, monkeys 115,116,120,AVG, BLOQ=below 50 ng/mL) was “BLOQ” and the concentration at 0.033 hr ([2]; male, cynomolgus monkey, in vivo, iv, 10 mg FAE/monkey, Plasma concentration, 0.033 hr, 2.5 mg FAE/mL in 10% HPβCD+3% Mannitol in water, 10 mg FAE/monkey intravenous injection, monkeys 115,116,120,AVG) was 50600 ng/mL. For the same compound, the concentration at 0.25 hr ([2]; male, cynomolgus monkey, in vivo, iv, 10 mg FAE/monkey, Plasma concentration, 0.25 hr, 2.5 mg FAE/mL in 10% HPβCD+3% Mannitol in water, 10 mg FAE/monkey intravenous injection, monkeys 115,116,120,AVG) was 32300 ng/mL, the concentration at 0.5 hr ([2]; male, cynomolgus monkey, in vivo, iv, 10 mg FAE/monkey, Plasma concentration, 0.50 hr, 2.5 mg FAE/mL in 10% HPβCD+3% Mannitol in water, 10 mg FAE/monkey intravenous injection, monkeys 115,116,120,AVG) was 25300 ng/mL and the concentration at 1 hr ([2]; male, cynomolgus monkey, in vivo, iv, 10 mg FAE/monkey, Plasma concentration, 1.0 hr, 2.5 mg FAE/mL in 10% HPβCD+3% Mannitol in water, 10 mg FAE/monkey intravenous injection, monkeys 115,116,120,AVG) was 22800 ng/mL. For the same compound, the concentration at 12 hr ([2]; male, cynomolgus monkey, in vivo, iv, 10 mg FAE/monkey, Plasma concentration, 12 hr, 2.5 mg FAE/mL in 10% HPβCD+3% Mannitol in water, 10 mg FAE/monkey intravenous injection, monkeys 115,116,120,AVG) was 762 ng/mL, the concentration at 24 hr ([2]; male, cynomolgus monkey, in vivo, iv, 10 mg FAE/monkey, Plasma concentration, 24 hr, 2.5 mg FAE/mL in 10% HPβCD+3% Mannitol in water, 10 mg FAE/monkey intravenous injection, monkeys 115,116,120,AVG) was 347 ng/mL and the concentration at 48 hr ([2]; male, cynomolgus monkey, in vivo, iv, 10 mg FAE/monkey, Plasma concentration, 48 hr, 2.5 mg FAE/mL in 10% HPβCD+3% Mannitol in water, 10 mg FAE/monkey intravenous injection, monkeys 115,116,120,AVG) was 134 ng/mL. It also gave an AUC ([2]; male, cynomolgus monkey, in vivo, iv, 10 mg, AUCall, 2.5 mg FAE/mL in 10% HPβCD+3% Mannitol in water, 10 mg FAE/monkey intravenous injection, monkeys 115,116,120,AVG) of 114000 ng·h/mL, a C0 ([2]; male, cynomolgus monkey, in vivo, iv, 10 mg, C0, 2.5 mg FAE/mL in 10% HPβCD+3% Mannitol in water, 10 mg FAE/monkey intravenous injection, monkeys 115,116,120,AVG) of 54200 ng/mL and a half-life ([2]; male, cynomolgus monkey, in vivo, iv, 10 mg, t1/2, 2.5 mg FAE/mL in 10% HPβCD+3% Mannitol in water, 10 mg FAE/monkey intravenous injection, monkeys 115,116,120,AVG) of 14.7 h. The AUC [2, 4] was 58300 ng·h/mL, the C0 [2, 4] was 49400 ng/mL and the Tmax [2, 4] was 0 h. For the same compound, the clearance ([2]; male, cynomolgus monkey, plasma, iv, 10 mg, CL, 2.5 mg FAE/mL in 10% HPβCD+3% Mannitol in water, 10 mg FAE/monkey intravenous injection, monkeys 115,116,120,AVG) was 0.333 mL/min/kg.
